According to US20140315738A1, “MARINE MEDAKA GENES RESPONDING TO THE EXPOSURE OF ENDOCRINE-DISRUPTING CHEMICALS, AND METHOD FOR DIAGNOSING AN AQUATIC ECO-SYSTEM CONTAMINATION USING SAME” (priority 2011, published 2014):

Test system: Javanese medaka (Oryzias javanicus) livers
Assay: real-time quantitative PCR of liver gene expression after exposure to 17β-estradiol
Assay type: in vivo
Conditions: duration of exposure 24 hr, 100 μg/L, β-actin control gene
Experimental: To 3 L beaker with 2 L filtered seawater therein, 10 male Javanese medaka bred in culture water tank were transported each time, and acclimated for 24 hr. […] Additionally, five Javanese medaka of Example <1-1> were exposed to BPA (76 μg/L) for 48 hr. […] The Javanese medaka was transported to ice water, one at a time, which momentarily stunned it, followed by beheading and evisceration and liver removal.
Primers for real-time quantitative PCR (RT-PCR) for the above genes were designed and synthesized (Table 3).
With RNA template extracted with the method of Example <2-1>, cDNA was synthesized using AB High Capacity RNA-to-cDNA Kit (Applied Biosystems, USA). RNA in the amount of 1 μg was seeded, added with distilled water and titrated to 9 μl. 2×RT buffer (10 μl), and 20× enzyme Mix 1 μl were mixed well, centrifuged and precipitated, and allowed to react at 37° C. for 60 min. The reactant was heated at 95° C. for 5 min, after which reaction was completed. The synthesized cDNA was stored at −20° C.
To the 0.5 μg synthesized cDNA (corresponding to approximately 10 ng/μl), 0.8 primer pairs of corresponding genes (10 pmol/μl), and 2 SYBR1 mixture (10 μl) were added. The final amount was titrated to 20 μl using distilled water. At temperature condition of 95° C. 10 min, 95° C. 30 sec, 60° C. 30 sec, 72° C. 30 sec, 40 cycles of PCR were conducted.

`C[C@]12CC[C@@H]3c4ccc(O)cc4CC[C@H]3[C@@H]1CC[C@@H]2O` [17β-estradiol] was tested, and the “Difference of expression level, Apolipoprotein B (SEQ ID 53)” value was 2.5 times lower, the “Difference of expression level, Cytochrome P450 1A (CYP1A) (SEQ ID 5)” value was 2.7 times lower and the “Difference of expression level, Glucose-6-phosphate dehydrogenase (SEQ ID 55)” value was 2.2 times lower. The “Difference of expression level, Glutamate dehydrogenase 1b (SEQ ID 54)” value was 5.2 times lower, the “Difference of expression level, Selenoprotein M (SEQ ID 8)” value was 7.7 times higher and the “Difference of expression level, Transferrin (SEQ ID 56)” value was 3.6 times lower. The “Difference of expression level, Vitellogenin 1 (SEQ ID 37)” value was 59.1 times higher.
